Test results reported in paper PMC9231138, “Dihydrotanshinone I Enhances Cell Adhesion and Inhibits Cell Migration in Osteosarcoma U−2 OS Cells through CD44 and Chemokine Signaling” (Molecules, 2022).
Like-named read-outs stand apart in the source and are kept apart here. Values belong to the molecule of their own block, whether it stands above or below them.

How the values were obtained:
U−2 OS cells = test: MTT cell proliferation assay, U−2 OS cells; type: cell-based; settings: Homo sapiens, U2OS, MTT
Protocol: (§1) The effects of tanshinones (DS−1 to DS−5) on the proliferation of U−2 OS cells, HeLa cells, and NRK−49F cells were measured by the classical MTT method with minor modifications as follows. Cells were seeded at 5000 per well in 96-well plates, with each group being repeated in 5 wells, and were incubated for 12 h. DS−1 to DS−5 were added at gradient concentrations, then incubated for 24 and 48 h, respectively. Then, 20 μL MTT solution (solved in PBS, 5 mg/mL) was added to every well, and the cells were further incubated at 37 °C for 4 h until a purple precipitate was visible. The plate was centrifuged at 1000 rpm for 1 min; the supernatant was suctioned, and 150 μL of DMSO was added per well; the plate was shaken on a shaker protected from light for 15 min. We placed the plate in an enzyme marker and measured the absorbance values at a 490 nm wavelength.

HeLa cells = test: MTT cell proliferation assay, HeLa cells; type: cell-based; settings: Homo sapiens, MTT, 24 h, read-out: IC50 HeLa cells (24 h)
Protocol: as §1

NRK−49F cells = test: MTT cell proliferation assay, NRK−49F cells; type: cell-based, rat; settings: MTT, 24 h, normal rat kidney cells, read-out: IC50 NRK−49F cells (24 h)
Protocol: as §1

[1] = 24 h, read-out: IC50 U−2 OS cells (24 h)
[2] = 48 h, read-out: IC50 U−2 OS cells (48 h)

- IC50 (HeLa cells): 32.1 ± 1.94 µM
Compound: Cc1coc2c1C(=O)C(=O)c1c-2ccc2c1CCCC2(C)C [DS−5, Tanshinone IIA]
- IC50 (U−2 OS cells; [1]): 25.4 ± 1.43 µM
- IC50 (U−2 OS cells; [2]): 5.91 ± 1.08 µM
- IC50 (NRK−49F cells): > 50 µM

- IC50 (HeLa cells): 25 ± 2.03 µM
Compound: CC1=CCCc2c1ccc1c2C(=O)C(=O)c2c(C)coc2-1 [DS−4, 1,2-Dihydrotanshinquinone]
- IC50 (U−2 OS cells; [1]): 22.1 ± 1.31 µM
- IC50 (U−2 OS cells; [2]): 5.89 ± 0.4 µM
- IC50 (NRK−49F cells): 31.8 ± 1.59 µM

- IC50 (HeLa cells): 20.9 ± 2.81 µM
Compound: Cc1coc2c1C(=O)C(=O)c1c-2ccc2c(C)cccc12 [DS−3, Tanshinone I]
- IC50 (U−2 OS cells; [1]): 17.8 ± 1.03 µM
- IC50 (U−2 OS cells; [2]): 4.54 ± 1 µM
- IC50 (NRK−49F cells): 108 ± 28.9 µM

Compound: C[C@H]1COC2=C1C(=O)C(=O)c1c2ccc2c1CCCC2(C)C [DS−2, Cryptotanshinone]
- IC50 (U−2 OS cells; [1]): 47.8 ± 4.96 µM
- IC50 (U−2 OS cells; [2]): 25.6 ± 0.81 µM
- IC50 (HeLa cells): 52.1 ± 3.2 µM
- IC50 (NRK−49F cells): 35.4 ± 3.25 µM
